In ChEMBL document CHEMBL5727909, “Pyridine derivatives and their use in the treatment of cancer and hemoglobinopathies” (2020):

Target: Protein arginine N-methyltransferase 5 (Homo sapiens, UniProt O14744)
Test: Biochemical Assay : The 6 μL reactions are run in Greiner brand black 384-well low volume assay plates. All reactions contained assay buffer (phosphate buffered saline, 0.01% (v/v) Tween-20, 0.01% (w/v) albumin from chicken egg white, 1 mM Dithiothreitol, 1 μM peptide substrate, 1 μM S-Adenosyl methionine, and 15 ng/reaction enzyme, with the enzyme being omitted from negative control reactions. Compounds were added in a volume of 100 nL from dilution series prepared in DMSO, positive and negative control reactions receiving the same volume DMSO without compound. The plates were sealed with adhesive seals and incubated for 4 hours at 37 degree Celsius. Reaction progress was measured using the Transcreener EPIGEN methyltransferase assay (BellBrook Labs, Madison, Wis.) as recommended by the manufacturer. To each reaction 2 μL detection mix were added, containing coupling enzymes, fluorescence polarisation tracer, and AMP antibody. Plates were incubated for 90 minutes before being read on a PerkinElmer EnVision™ plate reader in fluorescence polarisation mode.

Chain of Protein arginine N-methyltransferase 5 (O14744 whole entry): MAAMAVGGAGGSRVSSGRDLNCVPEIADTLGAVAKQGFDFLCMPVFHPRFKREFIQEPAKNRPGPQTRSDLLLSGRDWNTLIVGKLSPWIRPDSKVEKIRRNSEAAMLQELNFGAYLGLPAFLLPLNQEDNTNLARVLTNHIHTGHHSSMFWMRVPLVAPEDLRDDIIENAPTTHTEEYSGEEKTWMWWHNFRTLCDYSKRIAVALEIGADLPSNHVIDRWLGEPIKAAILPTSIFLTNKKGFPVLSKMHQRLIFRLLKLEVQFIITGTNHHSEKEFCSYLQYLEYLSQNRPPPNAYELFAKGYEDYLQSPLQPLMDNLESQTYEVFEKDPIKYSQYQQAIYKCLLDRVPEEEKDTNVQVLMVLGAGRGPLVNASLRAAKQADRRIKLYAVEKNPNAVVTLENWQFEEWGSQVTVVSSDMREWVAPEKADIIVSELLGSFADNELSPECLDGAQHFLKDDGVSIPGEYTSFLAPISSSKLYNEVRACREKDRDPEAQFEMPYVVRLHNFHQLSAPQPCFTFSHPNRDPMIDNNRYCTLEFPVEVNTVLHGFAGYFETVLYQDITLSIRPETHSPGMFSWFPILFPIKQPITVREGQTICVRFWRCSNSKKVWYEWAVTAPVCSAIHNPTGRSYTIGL

Q: Which IC50 does the source give for `CC(=O)N1CCC(Nc2nccc(C(=O)NC[C@@H](O)CNC3CC4C=CC=CC4C3)c2C)CC1` (stereo partly specified) here?
A: 105 nM
